Experimental data as given in PMC12454493, “Insight on novel sulfamoylphenyl pyrazole derivatives as anticancer carbonic anhydrase inhibitors” (Molecular Diversity, 2024).
Read-outs that look alike come from different tables or passages of the source.

System: MCF-7 breast cancer cell line
Experiment: In vitro cytotoxicity, MTT assay
Conditions: Homo sapiens
Procedure: In vitro cytotoxic activity:
Firstly, cultures were delivered into sterile area then each vial was supplied with 3 mL of medium or balanced salt solution free from phenol red and serum. Cultures were subjected to incubation foe 2-4 g. After the incubation period, MTT solubilization solution was added to remove the produced formazan crystals. Spectrophotometric measurement of absorbance was carried out at 690 nm for the background which then subtracted from absorbance measured at 570 nm. Five different drug concentrations were used 100, 25, 6.3, 1.6 and 0.4 nM and measured in triplicate.
Cell cycle analysis and Apoptotic assay
was determined using Annexin V-FITC Apoptosis Detection Kit (Bio Vision) according to the manufacturer’s procedures. Briefly, cell lines were cultured and incubated with each of the tested compounds for 48 h. Then, the cells were collected by centrifugation and resuspended in 500 μl of 1X binding buffer. 5 μl of Annexin V-FITC was added and 5 μl of propidium iodide (PI 50 mg/ml, optional.). The cells were incubated at room temperature for
Em = 530 nm) using FITC signal detector and PI staining was analyzed by the phycoerythrin emission signal detector.
Apoptotic assay: cell lines were cultured and incubated with each of the tested compounds for 48 h.
Then, the cells were collected by centrifugation and resuspended in 500 μl of 1X binding buffer. 5 μl of Annexin V-FITC was added and 5 μl of propidium iodide (PI 50 mg/ml, optional.). the cells were incubated at room temperature for 5 min in the dark.
signal detector and PI staining was analyzed by the phycoerythrin emission signal detector.

Which IC50 (MCF7, read-out: IC50 (µM) ± SD cytotoxic activity, MCF-7, MTT, normal conditions) does the source give for COc1cccc2c1C(=O)c1c(O)c3c(c(O)c1C2=O)C[C@@](O)(C(=O)CO)C[C@@H]3O[C@H]1C[C@H](N)[C@H](O)[C@H](C)O1 [Doxorubicin, doxorubicin, reference compound] here?
The IC50 was 11.6 ± 0.46 µM.

What about the IC50 (MCF7, read-out: IC50 (µM) ± SD cytotoxic activity, MCF-7, MTT, under hypoxia) of the same molecule?
The IC50 was 2.72 ± 0.11 µM.
